Measured values: patent US9556153B1, “JAK1 inhibitors” (Eli Lilly and Company, priority 2015, dated 2017)
pIC50: −log10 of the molar value.

Tested on: Ba/F3 cells expressing human mtJAK1 (S729C)
Test: BaF3 Mutant JAK-1 (S729C) Clone 12 Proliferation Assay
Assay type: cell-based, Murine
Conditions: BaF3, 72 h; 3 day incubation, Cell Titer Glo; n=4
Experimental: BaF3 Mutant JAK-1 (S729C) Clone 12 Proliferation Assay
The purpose of this assay is to determine the inhibitory activity of JAK-1 specific inhibitors using the BaF3 mutant JAK-1 (S729C) Clone 12 proliferation assay.
mtJAK1 (S729C) expressing cell line is created by transducing Ba/F3 cells (Murine pro-B-cells) with a retrovirus expressing human mtJAK1 (S729C)-pQCXIN vector DNA. Single cell cloning is performed to select Ba/F3 cells expressing highest levels of mtJAK1 (S729C) by serial dilution. BaF3 mutant JAK-1 (S729C) suspension cells are cultured and maintained in (Gibco RPMI 1640 cat# A10491-01) containing 10% Hi-FBS (Hyclone cat#10082-047), 1 μg/ml puromycin dihydrochloride (Sigma cat#9620), 1.0 mg/mL G418 sulfate (Corning ref#30-234-CI), referred to as R10+ from now on.
Proliferation assays are performed in culture medium without selection and from now on will be referred to as (R10−). Briefly, cultured cells are decanted, centrifuged and reconstituted in 10 mL of R10− and counted using a Beckman Coulter Vi-Cell. Cells are further diluted to 2e4/mL in R10− and plated in a 96 well white opaque assay plates (Costar cat#3610) at 1×10^3 cells (50 μls) per well. […] Luminescence is then read on a Perkin Elmer Victor2 using a preset program for luminescence at 0.1 second. […]

pIC50: 6.02
Compound: Cc1cc(Nc2cc(O[C@H]3CC[C@@H](NC[C@@H](O)C(F)(F)F)CC3)cc3c2ncn3C)nn1C [Example 1, (2R)-3-{[cis-4-({4-[(1,5-Dimethyl-1H-pyrazol-3-yl)amino]-1-methyl-1H-benzimidazol-6-yl}oxy)cyclohexyl]amino}-1,1,1-trifluoropropan-2-ol]
